Assay results taken from ChEMBL document CHEMBL1154382, “Preliminary SAR analysis of novel antiproliferative N(6),5'-bis-ureidoadenosine derivatives” (2009).

Key:
Assay type in all cases: functional
Conditions in all cases: values are per cent of control
HT-29 = test: Antiproliferative activity against human HT-29 cells at 10 uM assessed as cell growth inhibition relative to control
SK-MEL-28 = test: Antiproliferative activity against human SK-MEL-28 cells at 10 uM assessed as cell growth inhibition relative to control
MOLT-4 = test: Antiproliferative activity against human MOLT4 cells at 10 uM assessed as cell growth inhibition relative to control
SW-620 = test: Antiproliferative activity against human SW620 cells at 10 uM assessed as cell growth inhibition relative to control
SNB-19 = test: Antiproliferative activity against human SNB19 cells at 10 uM assessed as cell growth inhibition relative to control
NCI-H460 = test: Antiproliferative activity against human NCI-H460 cells at 10 uM assessed as cell growth inhibition relative to control
ACHN = test: Antiproliferative activity against human ACHN cells at 10 uM assessed as cell growth inhibition relative to control
SK-OV-3 = test: Antiproliferative activity against human SKOV3 cells at 10 uM assessed as cell growth inhibition relative to control
CAKI-1 = test: Antiproliferative activity against human Caki1 cells at 10 uM assessed as cell growth inhibition relative to control
K562 = test: Antiproliferative activity against human K562 cells at 10 uM assessed as cell growth inhibition relative to control
DU-145 = test: Antiproliferative activity against human DU145 cells at 10 uM assessed as cell growth inhibition relative to control
MDA-MB-468 = test: Antiproliferative activity against human MDA-MB-468 cells at 10 uM assessed as cell growth inhibition relative to control
HCT-116 = test: Antiproliferative activity against human HCT116 cells at 10 uM assessed as cell growth inhibition relative to control
HCC 2998 = test: Antiproliferative activity against human HCC2998 cells at 10 uM assessed as cell growth inhibition relative to control
786-0 = test: Antiproliferative activity against human 786-0 cells at 10 uM assessed as cell growth inhibition relative to control
NCI-H522 = test: Antiproliferative activity against human NCI-H522 cells at 10 uM assessed as cell growth inhibition relative to control
RXF 393 = test: Antiproliferative activity against human RXF393 cells at 10 uM assessed as cell growth inhibition relative to control
U-251 = test: Antiproliferative activity against human U251 cells at 10 uM assessed as cell growth inhibition relative to control
IGROV-1 = test: Antiproliferative activity against human IGROV1 cells at 10 uM assessed as cell growth inhibition relative to control
OVCAR-4 = test: Antiproliferative activity against human OVCAR4 cells at 10 uM assessed as cell growth inhibition relative to control
[1] = Antiproliferative activity against human […] cells at 10 uM assessed as cell growth inhibition relative to control
TK-10 = test: Antiproliferative activity against human TK10 cells at 10 uM assessed as cell growth inhibition relative to control
UO-31 = test: Antiproliferative activity against human UO31 cells at 10 uM assessed as cell growth inhibition relative to control
SK-MEL-5 = test: Antiproliferative activity against human SK-MEL-5 cells at 10 uM assessed as cell growth inhibition relative to control
LOX IMVI = test: Antiproliferative activity against human LOXIMVI cells at 10 uM assessed as cell growth inhibition relative to control
T47D = test: Antiproliferative activity against human T47D cells at 10 uM assessed as cell growth inhibition relative to control
HOP-92 = test: Antiproliferative activity against human HOP92 cells at 10 uM assessed as cell growth inhibition relative to control
EKVX = test: Antiproliferative activity against human EKVX cells at 10 uM assessed as cell growth inhibition relative to control
SNB-75 = test: Antiproliferative activity against human SNB75 cells at 10 uM assessed as cell growth inhibition relative to control
COLO 205 = test: Antiproliferative activity against human COLO205 cells at 10 uM assessed as cell growth inhibition relative to control
SK-MEL-2 = test: Antiproliferative activity against human SK-MEL-2 cells at 10 uM assessed as cell growth inhibition relative to control
SF-295 = test: Antiproliferative activity against human SF295 cells at 10 uM assessed as cell growth inhibition relative to control
NCI-H23 = test: Antiproliferative activity against human NCI-H23 cells at 10 uM assessed as cell growth inhibition relative to control
Malme-3M = test: Antiproliferative activity against human MALME-3M cells at 10 uM assessed as cell growth inhibition relative to control
NCI-H322M = test: Antiproliferative activity against human NCI-H322M cells at 10 uM assessed as cell growth inhibition relative to control
OVCAR-3 = test: Antiproliferative activity against human OVCAR-3 cells at 10 uM assessed as cell growth inhibition relative to control
OVCAR-8 = test: Antiproliferative activity against human OVCAR8 cells at 10 uM assessed as cell growth inhibition relative to control
SF-268 = test: Antiproliferative activity against human SF268 cells at 10 uM assessed as cell growth inhibition relative to control
OVCAR-5 = test: Antiproliferative activity against human OVCAR5 cells at 10 uM assessed as cell growth inhibition relative to control
UACC-257 = test: Antiproliferative activity against human UACC257 cells at 10 uM assessed as cell growth inhibition relative to control
A498 = test: Antiproliferative activity against human A498 cells at 10 uM assessed as cell growth inhibition relative to control
BT-549 = test: Antiproliferative activity against human BT549 cells at 10 uM assessed as cell growth inhibition relative to control
SN12C = test: Antiproliferative activity against human SN12C cells at 10 uM assessed as cell growth inhibition relative to control
NCI-H226 = test: Antiproliferative activity against human NCI-H226 cells at 10 uM assessed as cell growth inhibition relative to control
A549 = test: Antiproliferative activity against human A549 cells at 10 uM assessed as cell growth inhibition relative to control
UACC-62 = test: Antiproliferative activity against human UACC62 cells at 10 uM assessed as cell growth inhibition relative to control
MCF7 = test: Antiproliferative activity against human MCF7 cells at 10 uM assessed as cell growth inhibition relative to control
SF-539 = test: Antiproliferative activity against human SF539 cells at 10 uM assessed as cell growth inhibition relative to control
CCRF-CEM = test: Antiproliferative activity against human CCRF-CEM cells at 10 uM assessed as cell growth inhibition relative to control
PC-3 = test: Antiproliferative activity against human PC3 cells at 10 uM assessed as cell growth inhibition relative to control
M14 = test: Antiproliferative activity against human M14 cells at 10 uM assessed as cell growth inhibition relative to control
KM12 = test: Antiproliferative activity against human KM12 cells at 10 uM assessed as cell growth inhibition relative to control
HOP-62 = test: Antiproliferative activity against human HOP62 cells at 10 uM assessed as cell growth inhibition relative to control
MDA-MB-231 = test: Antiproliferative activity against human MDA-MB-231 cells at 10 uM assessed as cell growth inhibition relative to control
HL-60(TB) = test: Antiproliferative activity against human HL-60(TB) cells at 10 uM assessed as cell growth inhibition relative to control
[2] = Antiproliferative activity against human Hs 578T cells at 10 uM assessed as cell growth inhibition relative to control
HCT-15 = test: Antiproliferative activity against human HCT15 cells at 10 uM assessed as cell growth inhibition relative to control

## CCOC(=O)C[C@H]1[C@@H](O[Si](C)(C)C(C)(C)C)[C@H](n2cnc3c(N)ncnc32)O[C@@H]1CNC(=O)NC
HT-29
  growth, % of control at 10 µM: 111%
SK-MEL-28
  growth, % of control at 10 µM: 107%
MOLT-4
  growth, % of control at 10 µM: 108%
SW-620
  growth, % of control at 10 µM: 96%
SNB-19
  growth, % of control at 10 µM: 99%
NCI-H460
  growth, % of control at 10 µM: 111%
ACHN
  growth, % of control at 10 µM: 90%
SK-OV-3
  growth, % of control at 10 µM: 110%
CAKI-1
  growth, % of control at 10 µM: 96%
K562
  growth, % of control at 10 µM: 106%
DU-145
  growth, % of control at 10 µM: 98%
MDA-MB-468
  growth, % of control at 10 µM: 92%
HCT-116
  growth, % of control at 10 µM: 100%
HCC 2998
  growth, % of control at 10 µM: 84%
786-0
  growth, % of control at 10 µM: 93%
NCI-H522
  growth, % of control at 10 µM: 79%
RXF 393
  growth, % of control at 10 µM: 138%
U-251
  growth, % of control at 10 µM: 98%
IGROV-1
  growth, % of control at 10 µM: 97%
OVCAR-4
  growth, % of control at 10 µM: 99%
[1]
  growth, % of control at 10 µM: 98%
TK-10
  growth, % of control at 10 µM: 101%
UO-31
  growth, % of control at 10 µM: 87%
SK-MEL-5
  growth, % of control at 10 µM: 94%
LOX IMVI
  growth, % of control at 10 µM: 92%
T47D
  growth, % of control at 10 µM: 95%
HOP-92
  growth, % of control at 10 µM: 94%
EKVX
  growth, % of control at 10 µM: 92%
SNB-75
  growth, % of control at 10 µM: 86%
COLO 205
  growth, % of control at 10 µM: 117%
SK-MEL-2
  growth, % of control at 10 µM: 91%
SF-295
  growth, % of control at 10 µM: 101%
NCI-H23
  growth, % of control at 10 µM: 97%
Malme-3M
  growth, % of control at 10 µM: 95%
NCI-H322M
  growth, % of control at 10 µM: 94%
OVCAR-3
  growth, % of control at 10 µM: 98%
OVCAR-8
  growth, % of control at 10 µM: 100%
SF-268
  growth, % of control at 10 µM: 97%
OVCAR-5
  growth, % of control at 10 µM: 87%
UACC-257
  growth, % of control at 10 µM: 86%
A498
  growth, % of control at 10 µM: 109%
BT-549
  growth, % of control at 10 µM: 85%
SN12C
  growth, % of control at 10 µM: 88%
NCI-H226
  growth, % of control at 10 µM: 99%
A549
  growth, % of control at 10 µM: 84%
UACC-62
  growth, % of control at 10 µM: 80%
MCF7
  growth, % of control at 10 µM: 87%
SF-539
  growth, % of control at 10 µM: 97%
CCRF-CEM
  growth, % of control at 10 µM: 98%
PC-3
  growth, % of control at 10 µM: 98%
M14
  growth, % of control at 10 µM: 106%
KM12
  growth, % of control at 10 µM: 103%
HOP-62
  growth, % of control at 10 µM: 84%
MDA-MB-231
  growth, % of control at 10 µM: 96%
HL-60(TB)
  growth, % of control at 10 µM: 107%
[2]
  growth, % of control at 10 µM: 98%
HCT-15
  growth, % of control at 10 µM: 97%
